Laboratory results published in article PMC5247774 (Bioconjugate Chemistry, 2016).

Molecular target: T1, SERPINB3 (SB3) (Homo sapiens, UniProt P29508)
T1 sequence (P29508 1-390): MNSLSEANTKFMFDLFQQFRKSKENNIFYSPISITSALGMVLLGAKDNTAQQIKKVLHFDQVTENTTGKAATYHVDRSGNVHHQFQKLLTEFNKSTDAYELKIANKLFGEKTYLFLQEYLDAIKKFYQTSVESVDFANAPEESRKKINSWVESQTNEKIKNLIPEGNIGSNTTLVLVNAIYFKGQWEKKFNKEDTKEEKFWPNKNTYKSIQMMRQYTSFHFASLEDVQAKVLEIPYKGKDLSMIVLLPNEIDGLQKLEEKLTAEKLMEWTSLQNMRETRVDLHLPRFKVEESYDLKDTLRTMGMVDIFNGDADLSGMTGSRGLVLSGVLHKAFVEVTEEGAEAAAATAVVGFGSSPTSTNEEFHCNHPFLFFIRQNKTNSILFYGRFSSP
Type: binding
Details: SPR, increasing concentrations

interaction with SB3 (in words): did not reveal any interaction
Sequence: CPNFDWDPNNSNAGFAPDLQHDPFFGLP [CysPreS1]
